The values below come from US20250283050A1, “METHOD OF CANCER TREATMENT” (priority 2021, published 2025).

One assay deals with esophageal cancer. The assay is described as follows: en bloc tumor culture with chemotherapeutic agent and Hom-1-TAMs: esophageal cancer. In kind it is cell-based. The note with it: agent plus Hom-1-TAMs. The procedure: (§1) Besides CRC, Hom-1-TAMs reverse immune polarity of PDAC and NSCLC TME (data not shown). The effects of Hom-1-TAM on tumoricidal effects of DOX were further explored on other tumor types, such as PDAC, NSLC, esophageal cancer and stomach cancers.
(§2) Additional chemo-reagents used in this study are listed below.
(§3) Tumor tissue were washed with 1×PBS buffer plus antibiotics and then cut into 0.5 cm pieces. Tissues were cultured in 2 mL of RPMI 1640 medium, supplemented with 2-10% FBS (Sigma) and 1% antibiotic-antimycotic solution (Gibco) in 24-well plate (Corning). The cultures were incubated at a 37° C., 5% CO2 incubator. […] To evaluate the effect of chemotherapeutic agents, chemo-reagents at indicated concentration or PBS was used instead of the anti-PD-1 antibody. For en bloc tissue and macrophage co-culture assay, 0.25×10^6 GFP-Hom-1 or control GFP transfected autologous macrophages of the same patient were added to the en bloc tissue culture wells. After gently shaking, the plate was incubated at 37° C., 5% CO2 for 3-5 days. The en bloc tissues were then subjected to single 1 cell isolation and analysis as described.

Assay [1] relates to non-small cell lung cancer (NSCLC). The assay is described as follows: en bloc tumor culture with chemotherapeutic agent and Hom-1-TAMs: NSCLC. In kind it is cell-based. Conditions: agent plus Hom-1-TAMs. The procedure: as §1, §2, §3
Assay [2] has as its system TAMs and Treg in NSCLC-TME. The assay is described as follows: en bloc NSCLC culture: effects of PD-1 antibody on TAMs and Treg (FACS, qRT-PCR of Hom-1). The note with it: 1 μg/mL Pembrolizumab, 48 hours. In kind it is cell-based, human. The procedure:
The effects of the treatment on TAMs were determined by FACS analysis of cell surface expression of CD68 and CD206 and qRT-PCR analysis of Hom-1 expression levels.
Total RNA was isolated by the TRIzol reagent (Life Technologies) and RNA amounts were measured by NanoDrop 2000 (Thermo Scientific). Equal amount of RNA was used for first-strand cDNA synthesis with SuperScript III First-Strand Synthesis System (Life Technologies) according to the manufacturer's protocol. The AccuPrime Taq DNA polymerase system (Life Technologies) was used to amplify Hom-1 cDNA with conventional PCR. Quantitative measurements of Hom-1 and other cDNA were carried out with SYBR Green, using a Mastercycler ep Gradient S (Eppendorf). GAPDH was used as a house keeping gene to normalize mRNA expression. Relative expression profiles of mRNAs were calculated using the comparative Ct method (DDCT method).
Tumor tissue were washed with 1×PBS buffer plus antibiotics and then cut into 0.5 cm pieces. Tissues were cultured in 2 mL of RPMI 1640 medium, supplemented with 2-10% FBS (Sigma) and 1% antibiotic-antimycotic solution (Gibco) in 24-well plate (Corning). The cultures were incubated at a 37° C., 5% CO2 incubator. […] To evaluate the effect of chemotherapeutic agents, chemo-reagents at indicated concentration or PBS was used instead of the anti-PD-1 antibody. […]
A general note: Quantitative PCR measures a nucleic acid by following its amplification.

The subject of another assay is CD8 T cells in NSCLC-TME. The assay is described as follows: en bloc NSCLC culture: PD-1 antibody activation of CD8 T cells (FACS and ELISA of IL-2, IFN-γ). In kind it is cell-based, human. The procedure: Tumor infiltrating T (TIL) cells and TAMs were then isolated, and their functional status were determined by FACS analysis.
Single cell suspensions were then generated and stained with FITC conjugated anti-CD8 antibody. The cells were then fixed, permeabilized, stained with PE-conjugated anti-IL2, or anti-IFNy antibodies and analyzed by a flow cytometry.
The culture media were collected after 48 hours. The levels of IL-2, and IFN-γ were quantified using ELISA kits, and statistical significance was determined by a two-way ANOVA analysis.
Levels of IL-1B, IL-2, IFN-γ and TNF-α were quantified using ELISA kits obtained from eBiosciences. Analyses were conducted according to the manufacturer's instructions. Triplicate wells were plated for each condition.
as §3, with “After gently shaking, the plate was incubated at 37° C., 5% CO2 for 3-5 days. The en bloc tissues were then subjected to single 1 cell isolation and analysis as described.” left out

Another assay deals with NSCLC cancer cells. The assay is described as follows: en bloc NSCLC culture: cancer cell viability by PI-staining and FACS. In kind it is cell-based, human. Conditions: PD-1 antibody alone, 5 days. On the procedure: Single cell suspensions were then obtained by mechanical disruption. The tumor cells were fixed and permeabilized, and were stained with CK7 antibodies and non-tumor epithelial cells were stained with EP4 antibodies. The cells were labeled with PI and percentage of PI positive cells were determined by FACS analysis.
As TME has been implicated in ICI resistance, it was next shown that reversal of immune suppression at NSCLC-TME increased efficacy of PD-1 antibodies. Specifically, en block NSCLC or control nLung tissues were treated with PD-1 or control antibodies, and co-cultured with autologous TAMs transfected with Hom-1 or control GFP. The effects of co-culturing were determined by FACS analysis of cancer or normal epithelial cell viability.
Tumor tissue were washed with 1×PBS buffer plus antibiotics and then cut into 0.5 cm pieces. Tissues were cultured in 2 mL of RPMI 1640 medium, supplemented with 2-10% FBS (Sigma) and 1% antibiotic-antimycotic solution (Gibco) in 24-well plate (Corning). […]
Single cell suspensions generated from en bloc tissue culture were washed with FACS staining solution (PBS plus 2% FBS), fixed and permeabilized (Invitrogen) and then stained with Ber-EP4 antibodies for normal epithelial cells and CK7, CK19 and CK20 for cancer cells for 30 minutes on ice. […] Cell viability were then analyzed with a flow cytometry.

For a further assay, the system named is primary human NSCLC. The assay is described as follows: individual NSG-PDX models of primary human NSCLC. In kind it is in vivo, NSG mice. Conditions: infusion of PD-1 antibody alone. The source says: Specifically, individual NSG-PDX models of primary NSCLC were generated by engrafting small pieces of primary NSCLC tissues into subcutaneous space on the dorsal lateral side of NSG mice.
Individual NSG-PDX models of primary human lung cancers were developed according to standard procedure. All animal experiments were approved by the Institutional Animal Care and Use Committee. Briefly, 8-week-old NOD.Cg-Prkdc^scid Il2rg^tm1Wjl/SzJ mice (commonly known as NOD scid gamma, or NSG mice) were purchased from the Jackson Laboratory and maintained under specific pathogen-free conditions. NSCLC tumors were cut into around 0.5 cm pieces and then surgically implanted into subcutaneous space on the dorsal side of NSG mice. […] The tumor growth was monitored twice weekly and measured by a caliper for 6 weeks. Tumor volumes were calculated according to the formula ½ (length×width^2).

Assay [3] has as its system colorectal cancers (CRC) tumor cells. The assay is described as follows: en bloc CRC culture: tumor cell death by PI-staining and FACS. In kind it is cell-based, human. The note with it: en bloc CRC culture. On the procedure:
To this end, en bloc colorectal cancers (CRC) or control non-tumor colon mucosal tissues from the same patients were incubated in RPMI based media and treated with DOX for 3 days. The effects of the treatment on tumor or normal cells were then determined by PI-staining and FACS analysis.
To this end, en bloc CRC tumor or control colon mucosal tissues were treated with DOX at low non-cytotoxic dosage and then co-cultured with TAMs transfected with Hom-1 or control GFP. After 5 days of co-culturing, the effects of the treatment on the survival of tumor or control normal epithelial cells were determined by PI staining and FACS analysis.
as §3
Single cell suspensions generated from en bloc tissue culture were washed with FACS staining solution (PBS plus 2% FBS), fixed and permeabilized (Invitrogen) and then stained with Ber-EP4 antibodies for normal epithelial cells and CK7, CK19 and CK20 for cancer cells for 30 minutes on ice. After washes with FACS staining solution, cells were stained with FITC-conjugated secondary antibodies for 30 minutes on ice. The cells were then washed with FACS staining solution and fixed in 2% paraformaldehyde in PBS for 30 min or overnight. The cells were washed and resuspended in 200 μL of FACS staining solution and 5 μL of PI staining solution (eBioscience/Fisher Scientific) were added in the solution for 15 minutes. Cell viability were then analyzed with a flow cytometry.

“Also recorded” adds a separate entry of the source.

`N.N.[Cl][Pt][Cl]` [Cisplatin]: the “tumoricidal effects promoted by Hom-1-TAMs” value (with esophageal cancer; in assay [1]) was “promoted” each time.
Turning to Pembrolizumab [PD-1 antibody], the “phenotypical changes of Treg cells and TAMs” value in assay [2] is “no significant phenotypical changes of the Treg cells and TAMs”. For the same compound, in assay [2] (qRT-PCR), the “expression of Hom-1 in TAMs” value is given as “did not alter the expression of Hom-1 in TAMs”. For the same compound, the “CD8 T cell activation (expression and secretion of IL-2 and IFN-γ)” value in the assay with CD8 T cells in NSCLC-TME (1 μg/mL Pembrolizumab vs human IgG4, 24 or 48 hours) is reported as “activates CD8 T cells in TME; also recorded: activates CD8^+ CTL”. Moreover, the “dosage dependence of PD-1 antibody effect on CD8 T cell activation” value with CD8 T cells in NSCLC-TME (various concentrations, 48 hours, ELISA) was “dosage dependent”. For the same compound, the “PI-staining of tumor cells (tumoricidal effect)” value is “modest tumoricidal effects on cancer cells” in the assay with NSCLC cancer cells and “modest increase of PI-staining of tumor cells” with NSCLC cancer cells (listed as anti-PD-1 antibodies). For the same compound, the inhibition of tumorigenesis result in the assay with primary human NSCLC is given as “modest inhibition of tumorigenesis”.
On to `O=c1[nH]cc(F)c(=O)[nH]1` [5-FU], for which the “cytocidal effects on tumor cells” value in assay [3] (agent alone, dose range) is “dosage-dependent cytocidal effects on tumor cells”. In assay [3] (agent plus Hom-1-TAMs), the “tumoricidal effects promoted by Hom-1-TAMs” value is “promoted”.
